Measured values taken from patent US20240262811A1, “BENZIMIDAZOYL GLP-1 RECEPTOR AGONISTS, PHARMACEUTICAL COMPOSITIONS COMPRISING THE SAME, AND METHODS FOR THEIR USE” (Carmot Therapeutics, Inc., priority 2021, published 2024).
pEC50: −log10 of the molar value.

Molecular target: T1, human GLP-1 receptor (Homo sapiens, UniProt P43220)
T1 construct: expressed in transfected cells
Test: GLP-1R cAMP Assay (HitHunter cAMP accumulation in CHO cells stably overexpressing the human GLP-1 receptor)
Assay type: cell-based
Conditions: CHO cells overexpressing human GLP-1 receptor, 30 min treatment, 20-point dose response in triplicate
Method: cAMP accumulation was measured in Chinese hamster ovary (CHO) cells stably overexpressing the human GLP-1 receptor using the HitHunter cAMP Assay for Small Molecules Kit (Eurofins). Briefly, cells were grown in Ham's F12 Nutrient Mix with 10% FBS, and lifted with Cell Dissociation Buffer, Enzyme free, PBS based (ThermoFisher). Cells were pelleted, and resuspended in Hank's buffered saline solution with 10 mM HEPES, and 625 μM 3-isobutyl-1-methylxanthine. The anti-cAMP antibody reagent was then added to cells at a 1:2 ratio and 5 μL of mixture was seeded in 384-well small volume white assay plates, at 10,000 cells/well. Cells were then treated with 50 nL compound using an ECHO 550 acoustic dispenser (Labcyte) in a 20-point dose response format in triplicate for 30 min. Cells were then lysed, and detection reagents added according to the manufacturer's protocol. After overnight incubation, luminescence was measured using a Perkin Elmer Envision plate reader. Dose response curves were analyzed using GraphPad Prism 9.0.
Molecular weights are calculated by standard techniques, and mass spectrometry results are reported according to the Examples above.

T1 sequence (P43220 24-463): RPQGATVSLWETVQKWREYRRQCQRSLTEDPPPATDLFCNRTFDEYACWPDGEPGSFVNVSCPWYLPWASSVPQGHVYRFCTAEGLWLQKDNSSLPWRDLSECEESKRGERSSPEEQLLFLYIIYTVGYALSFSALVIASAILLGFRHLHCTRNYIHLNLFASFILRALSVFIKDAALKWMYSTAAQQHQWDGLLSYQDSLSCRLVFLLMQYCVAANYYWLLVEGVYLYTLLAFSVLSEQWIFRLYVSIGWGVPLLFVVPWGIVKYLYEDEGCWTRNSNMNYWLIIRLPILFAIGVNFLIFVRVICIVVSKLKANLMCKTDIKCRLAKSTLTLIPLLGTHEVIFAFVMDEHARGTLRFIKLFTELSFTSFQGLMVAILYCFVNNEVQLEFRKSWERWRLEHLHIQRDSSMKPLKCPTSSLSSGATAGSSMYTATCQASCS

SMILES: O=C(O)c1ccc2nc(CN3CC[C@H](Oc4ccnc(COc5ccc(Cl)cc5F)c4)C3)n(C[C@@H]3CCO3)c2c1 [Compound 289, 2-{[(3S)-3-({2-[(4-chloro-2-fluorophenoxy)methyl]pyridin-4-yl}oxy)pyrrolidin-1-yl]methyl}-1-{[(2S)-oxetan-2-yl]methyl}-1H-1,3-benzodiazole-6-carboxylic acid]
- pEC50: > 7.30
